Data reported in ChEMBL document CHEMBL1135394, “Improvement in the selectivity and metabolic stability of the serotonin 5-HT(1A) ligand, S 15535: a series of cis- and trans-2-(arylcycloalkylamine) 1-indanols” (J Med Chem, 2002).

Legend:
[1] = target: T1, 5-hydroxytryptamine receptor 1A (Homo sapiens, UniProt P08908); assay: Binding affinity at human 5-hydroxytryptamine 1A receptor by inhibition of [3H]8-OH-DPAT binding in Chinese hamster ovary cell line; type: cell-based
T1 sequence (P08908 whole entry): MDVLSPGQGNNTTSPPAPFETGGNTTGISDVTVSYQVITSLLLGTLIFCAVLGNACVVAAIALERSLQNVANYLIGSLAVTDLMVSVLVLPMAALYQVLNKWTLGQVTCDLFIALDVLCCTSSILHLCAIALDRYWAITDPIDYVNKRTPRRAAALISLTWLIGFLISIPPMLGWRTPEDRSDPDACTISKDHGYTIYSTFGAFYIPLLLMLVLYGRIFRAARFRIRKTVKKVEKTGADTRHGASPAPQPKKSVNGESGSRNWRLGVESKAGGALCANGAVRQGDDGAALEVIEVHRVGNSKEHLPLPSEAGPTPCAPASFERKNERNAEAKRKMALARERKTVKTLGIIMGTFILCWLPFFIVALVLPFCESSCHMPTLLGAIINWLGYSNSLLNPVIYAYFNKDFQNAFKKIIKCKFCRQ

[2] = target: T2, 5-hydroxytryptamine receptor 1A (Rattus norvegicus) (UniProt P19327); assay: Antagonistic activity at postsynaptic 5-hydroxytryptamine 1A receptor was measured by its ability to inhibit hypothermia elicited by s.c. administration of 8-OH-DPAT in rat;ranges from (0.80-5.80); type: functional, organism-based
T2 sequence (whole entry): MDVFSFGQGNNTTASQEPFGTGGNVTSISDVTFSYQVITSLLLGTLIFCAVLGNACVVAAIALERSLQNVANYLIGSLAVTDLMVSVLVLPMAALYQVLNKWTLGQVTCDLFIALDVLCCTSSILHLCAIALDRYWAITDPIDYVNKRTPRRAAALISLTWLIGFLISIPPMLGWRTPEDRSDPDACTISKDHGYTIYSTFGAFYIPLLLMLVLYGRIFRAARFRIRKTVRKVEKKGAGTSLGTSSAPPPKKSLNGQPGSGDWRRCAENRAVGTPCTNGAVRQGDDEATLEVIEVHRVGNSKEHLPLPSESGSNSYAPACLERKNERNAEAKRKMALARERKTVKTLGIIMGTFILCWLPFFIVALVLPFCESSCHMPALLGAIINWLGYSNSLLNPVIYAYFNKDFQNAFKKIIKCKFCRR

[3] = Selectivity ratio towards Alpha-1 adrenergic receptor to human 5-hydroxytryptamine 1A receptor
[4] = In vitro oral metabolic bioavailability after incubation with hepatic microsomes; type: ADME, Liver; settings: read-out: MF
[5] = target: T3, Adrenergic receptor alpha-1 (Rattus norvegicus, UniProt P15823+P23944+P43140); assay: Binding affinity at Alpha-1 adrenergic receptor by inhibition of [3H]-prazosin binding to rat cortex
T3 sequence (P15823 whole entry): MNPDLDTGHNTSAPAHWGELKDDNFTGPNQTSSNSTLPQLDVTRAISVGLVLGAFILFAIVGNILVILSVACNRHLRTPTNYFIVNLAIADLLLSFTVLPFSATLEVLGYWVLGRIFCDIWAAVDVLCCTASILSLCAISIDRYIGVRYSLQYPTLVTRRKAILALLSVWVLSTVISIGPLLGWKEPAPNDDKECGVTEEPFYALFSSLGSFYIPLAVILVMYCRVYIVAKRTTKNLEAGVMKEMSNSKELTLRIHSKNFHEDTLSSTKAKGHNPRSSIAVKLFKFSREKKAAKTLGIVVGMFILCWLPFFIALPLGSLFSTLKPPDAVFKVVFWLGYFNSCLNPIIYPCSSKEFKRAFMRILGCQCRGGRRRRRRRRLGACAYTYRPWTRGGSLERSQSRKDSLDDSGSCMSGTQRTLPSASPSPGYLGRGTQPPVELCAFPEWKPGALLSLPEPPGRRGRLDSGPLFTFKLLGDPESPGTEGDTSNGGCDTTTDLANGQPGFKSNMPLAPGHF
T3 sequence (P23944 whole entry): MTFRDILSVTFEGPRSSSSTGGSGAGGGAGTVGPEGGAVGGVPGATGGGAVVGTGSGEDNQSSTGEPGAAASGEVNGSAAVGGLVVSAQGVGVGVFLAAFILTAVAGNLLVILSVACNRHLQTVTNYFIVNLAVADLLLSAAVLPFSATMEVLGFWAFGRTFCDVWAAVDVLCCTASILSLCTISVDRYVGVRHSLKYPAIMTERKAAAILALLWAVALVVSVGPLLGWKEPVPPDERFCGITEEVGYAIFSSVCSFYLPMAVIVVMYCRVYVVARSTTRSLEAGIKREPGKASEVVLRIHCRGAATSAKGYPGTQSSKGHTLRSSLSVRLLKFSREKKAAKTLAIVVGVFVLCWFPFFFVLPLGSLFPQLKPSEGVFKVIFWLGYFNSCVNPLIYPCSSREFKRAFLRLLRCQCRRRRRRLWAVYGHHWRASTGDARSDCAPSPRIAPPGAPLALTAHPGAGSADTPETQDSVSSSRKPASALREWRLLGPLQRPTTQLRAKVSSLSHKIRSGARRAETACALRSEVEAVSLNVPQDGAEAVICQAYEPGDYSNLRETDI
T3 sequence (P43140 whole entry): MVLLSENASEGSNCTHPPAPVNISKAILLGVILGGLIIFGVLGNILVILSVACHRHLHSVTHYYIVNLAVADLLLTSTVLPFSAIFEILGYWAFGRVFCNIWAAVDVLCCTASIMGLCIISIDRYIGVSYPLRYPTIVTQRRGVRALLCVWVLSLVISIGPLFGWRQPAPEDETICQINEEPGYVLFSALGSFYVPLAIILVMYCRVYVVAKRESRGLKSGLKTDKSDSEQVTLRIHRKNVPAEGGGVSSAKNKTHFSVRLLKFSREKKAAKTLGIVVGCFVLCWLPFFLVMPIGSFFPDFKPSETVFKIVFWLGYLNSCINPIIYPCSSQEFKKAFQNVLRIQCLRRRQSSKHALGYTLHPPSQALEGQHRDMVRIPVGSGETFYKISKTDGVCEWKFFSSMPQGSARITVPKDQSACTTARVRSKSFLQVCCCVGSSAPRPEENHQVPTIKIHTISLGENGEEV

[6] = target: T2, 5-hydroxytryptamine receptor 1A (Rattus norvegicus); assay: Antagonistic activity at postsynaptic 5-hydroxytryptamine 1A receptor was measured by its ability to inhibit hypothermia elicited by s.c. administration of 8-OH-DPAT in rat;ranges from (0.40-2.70); type: functional, organism-based
[7] = target: T2, 5-hydroxytryptamine receptor 1A (Rattus norvegicus); assay: Antagonistic activity at postsynaptic 5-hydroxytryptamine 1A receptor was measured by its ability to inhibit hypothermia elicited by s.c. administration of 8-OH-DPAT in rat;ranges from (0.37-4.27); type: functional, organism-based
[8] = target: T2, 5-hydroxytryptamine receptor 1A (Rattus norvegicus); assay: Antagonistic activity at postsynaptic 5-hydroxytryptamine 1A receptor was measured by its ability to inhibit hypothermia elicited by s.c. administration of 8-OH-DPAT in rat;ranges from (0.60-1.60); type: functional, organism-based
[9] = target: T2, 5-hydroxytryptamine receptor 1A (Rattus norvegicus); assay: Antagonistic activity at postsynaptic 5-hydroxytryptamine 1A receptor was measured by its ability to inhibit hypothermia elicited by s.c. administration of 8-OH-DPAT in rat;ranges from (0.10-6.20); type: functional, organism-based
[10] = target: T2, 5-hydroxytryptamine receptor 1A (Rattus norvegicus); assay: Antagonistic activity at postsynaptic 5-hydroxytryptamine 1A receptor was measured by its ability to inhibit hypothermia elicited by s.c. administration of 8-OH-DPAT in rat;ranges from (0.72-2.87); type: functional, organism-based
[11] = target: T2, 5-hydroxytryptamine receptor 1A (Rattus norvegicus); assay: Antagonistic activity at postsynaptic 5-hydroxytryptamine 1A receptor was measured by its ability to inhibit hypothermia elicited by s.c. administration of 8-OH-DPAT in rat;ranges from (1.50-16.5); type: functional, organism-based

SMILES	Ki [1] [nM]	Ratio [3]	Fh [4] [%]	Log Ki [5]	other results
O[C@@H]1c2cc(F)ccc2C[C@H]1N1CCN(c2cccc3c2OCCO3)CC1 (relative stereo)	1.32	561	46	-6.13	ID50 [6]: 1 mg/kg
O[C@@H]1c2cc3c(cc2C[C@H]1N1CCC(c2cccc4c2OCCO4)CC1)OCO3 (relative stereo)	0.525	56	8	-7.53	ID50 [8]: 1 mg/kg
O[C@@H]1c2ccc(F)cc2C[C@H]1N1CCC(O)(c2cccc3c2OCCO3)CC1 (relative stereo)	> 1000	< 1		-6.31	
O[C@@H]1c2ccc(F)cc2C[C@H]1N1CCC(c2cccc3c2OCCO3)CC1 (relative stereo)	0.437	148	7	-7.19	
O[C@H]1c2ccc(F)cc2C[C@H]1N1CCC(O)(c2cccc3c2OCCO3)CC1 (relative stereo)	> 1000				
O=[N+]([O-])c1ccc2c(c1)[C@@H](O)[C@H](N1CCN(c3cccc4c3OCCO4)CC1)C2 (relative stereo)	0.741	1260	71	-6.03	ID50 [9]: 0.9 mg/kg
O[C@@H]1c2ccc(F)cc2C[C@H]1N1CCC(c2cccc3c2OCCC3)CC1 (relative stereo)	0.302	76		-7.64	
O[C@@H]1c2ccc(F)cc2C[C@H]1N1CC=C(c2cccc3c2SCCC3)CC1 (relative stereo)	11.7				
COc1ccc2c(c1)[C@H](O)[C@H](N1CCN(c3cccc4c3OCCO4)CC1)C2 (relative stereo)	17.4				
O[C@@H]1c2ccc(F)cc2C[C@H]1N1CCN(c2cccc3c2OCCC3)CC1 (relative stereo)	1.29	166		-6.67	
O[C@H]1c2ccccc2C[C@H]1N1CC=C(c2cccc3c2OCCO3)CC1 (relative stereo)	22.9				
O[C@@H]1c2cc(F)c(F)cc2C[C@H]1N1CCC(c2cccc3c2OCCO3)CC1 (relative stereo)	2.19	38	5	-7.08	ID50 [11]: 5 mg/kg
Cc1ccc2c(c1)C[C@@H](N1CCC(c3cccc4c3OCCO4)CC1)[C@@H]2O (relative stereo)	1.17	14.5		-7.77	

More lines, main results first:

Ki [1] [nM]	Ratio [3]	Fh [4] [%]	Log Ki [5]	SMILES	other results
0.776	102	8	-7.1	O[C@@H]1c2cc(F)ccc2C[C@H]1N1CCC(c2cccc3c2OCCO3)CC1 (relative stereo)	ID50 [2]: 2.1 mg/kg
10.5	64		-6.17	OCC1COc2c(cc(Cl)cc2N2CCN([C@@H]3Cc4cc(F)ccc4[C@H]3O)CC2)O1 (relative stereo)	
1.26		65	-6.15	O[C@@H]1c2ccc(F)cc2C[C@H]1N1CCN(c2cccc3c2OCCO3)CC1 (racemic)	
2.04				O[C@@H]1c2ccc(F)cc2C[C@H]1N1CCN(c2cccc3c2OCCO3)CC1 (stereo in doubt; (-))	
0.447	603	62	-6.57	COc1ccc2c(c1)[C@@H](O)[C@H](N1CCN(c3cccc4c3OCCO4)CC1)C2 (relative stereo)	ID50 [7]: 1.25 mg/kg
79.4	1.5		-6.9	COc1cc2c(cc1OC)[C@@H](O)[C@H](N1CCC(c3cccc4c3OCCO4)CC1)C2 (relative stereo)	
1.26		80	-6.55	COc1ccc2c(c1)C[C@@H](N1CCN(c3cccc4c3OCCO4)CC1)[C@@H]2O (racemic)	
4.9	11		-7.26	O[C@@H]1c2ccc(F)cc2C[C@H]1N1CCC(c2cc(F)cc3c2OCCC3)CC1 (relative stereo)	
26.9				O[C@H]1c2ccc(F)cc2C[C@H]1N1CCC(c2cccc3c2OCCO3)CC1 (relative stereo)	
6.61				COc1ccc2c(c1)C[C@@H](N1CCN(c3cccc4c3OCCO4)CC1)[C@@H]2O (stereo in doubt; (+))	
1.02				COc1ccc2c(c1)C[C@@H](N1CCN(c3cccc4c3OCCO4)CC1)[C@@H]2O (stereo in doubt; (-))	
0.55	66		-7.44	Cc1ccc2c(c1)[C@@H](O)[C@H](N1CCC(c3cccc4c3OCCO4)CC1)C2 (relative stereo)	
1.51	30		-7.34	O[C@@H]1c2ccc(F)cc2C[C@H]1N1CCC(c2cccc3c2OCC3)CC1 (relative stereo)	
23.4				COc1ccc2c(c1)C[C@@H](N1CCN(c3cccc4c3OCCO4)CC1)[C@H]2O (relative stereo)	
0.794	158	4	-6.9	c1ccc2c(c1)CC(N1CCN(c3cccc4c3OCCO4)CC1)C2	ID50 [10]: 1.44 mg/kg
0.631				O[C@@H]1c2ccc(F)cc2C[C@H]1N1CCN(c2cccc3c2OCCO3)CC1 (stereo in doubt; (+))	
1.32	645		-6.07	O[C@@H]1c2ccc(F)cc2C[C@H]1N1CCN(c2cc(Cl)cc3c2OCCO3)CC1 (relative stereo)	
316				O[C@H]1c2ccc(F)cc2C[C@H]1N1CCN(c2cccc3c2OCCC3)CC1 (relative stereo)	
